Laboratory results from paper PMC9322451 (Clinical Pharmacology in Drug Development, 2022).
Like-named read-outs stand apart in the source and are kept apart here.

Experiments:
[1] = Phase 1 part B: PK of single 40 mg oral dose, fasted vs fed (food effect); format: in vivo, human; details: for AUC(0-inf) / AUC(0-t) / Cmax / half-life / Tmax: human, plasma
Experimental: Participants were admitted to the clinical unit the day before doses were administered on days 1 and 8 and discharged on days 2 and 9, after collection of the 36‐hour postdose PK sample. The washout period between doses was 7 days. […] After dosing, participants were required to remain upright for at least 2 hours and refrain from food and drink for at least 4 hours; water was allowed after 2 hours.
For part B, blood sampling for PK assessments was performed following single‐dose administration on days 1 and 8 at 0 (predose), 0.25, 0.5, 1, 1.5, 2, 3, 3.5, 4, 6, 8, 10, 12, 24, 36, and 72 hours after dosing. PK parameters included Cmax, tmax, AUClast, AUC∞, CL/F, apparent volume of distribution after drug administration, and t1/2.
The assay range was 0.250 to 150 ng/mL, with overall precision and accuracy for intra‐ and interassays of 2.2% to 5.9% and −2.7% to 0.3%, respectively.
PK parameters were generated using noncompartmental analysis and were based on the PK population, which included all participants who received at least 1 dose of assigned treatment (safety population) and had evaluable Cmax and AUC parameters without significant protocol deviations. For part B, the PK population included participants who completed both treatment periods and had sufficient concentration data from both periods to fully derive the PK parameters.
Estimates and 90% CIs for the differences between treatment means were computed and converted to ratios by antilog transformation. Results for the geometric mean ratio of treatments (fasted vs fed) were tabulated for Cmax, AUClast, and AUC∞.

CYP2D6 = test system: CYP2D6; design: method as in unpublished data; details: ref unpublished data, read-out: half maximal inhibitory concentration; cited from earlier work
[2] = test system: organic anion and cation transporters; design: method as in unpublished data; details: ref unpublished data, read-out: half maximal inhibitory concentration; cited from earlier work
CYP2C8 = test system: CYP2C8; design: method as in unpublished data; details: ref unpublished data; cited from earlier work
[3] = test system: breast cancer resistance protein; design: method as in unpublished data; details: ref unpublished data; cited from earlier work
CYP2B6 = test system: CYP2B6; design: method as in unpublished data; details: ref unpublished data; cited from earlier work
P‐glycoprotein (P‐gp) = test system: P‐glycoprotein (P‐gp); design: method as in unpublished data; details: ref unpublished data; cited from earlier work
[4] = oral, 40 mg, Japanese n=9, fasted, least squares mean
[5] = oral, 40 mg, Japanese n=9, fed, least squares mean
[6] = oral, 40 mg, White n=10, fasted, least squares mean
[7] = oral, 40 mg, White n=10, fed, least squares mean
[8] = po, 40 mg, 40 mg single oral dose, Japanese, fasted, mean (CV%)
[9] = po, 40 mg, 40 mg single oral dose, Japanese, fed, mean (CV%)
[10] = po, 40 mg, 40 mg single oral dose, White, fasted, mean (CV%)
[11] = po, 40 mg, 40 mg single oral dose, White, fed, mean (CV%)
[12] = po, 40 mg, 40 mg single oral, fasted, Japanese
[13] = po, 40 mg, 40 mg single oral, fasted, White

In the case of `Cn1c(=O)oc2ccc(-c3ccc(C[C@@H](C#N)NC(=O)[C@@H]4CNCCCO4)cc3)cc21` [Brensocatib], the “effect of food on exposure” value ([1]; 40 mg) is reported as “no effect”, the CL/F ([1]; 40 mg single oral, fasted, Japanese) is reported as 7.7 L/h and the CL/F ([1]; 40 mg single oral, fasted, White) is reported as 6.5 L/h. For the same compound, the “AUClast GMR (fed/fasted), % (90% CI)” value ([1]; 40 mg, Japanese n=9) was 98.4 (94.4‐102.5) %, the “AUC∞ GMR (fed/fasted), % (90% CI)” value ([1]; 40 mg, Japanese n=9) was 99.2 (95.7‐102.8) % and the “Cmax GMR (fed/fasted), % (90% CI)” value ([1]; 40 mg, Japanese n=9) was 82.4 (67.9‐99.9) %. The “Cmax lower in the fed state” value ([1]; 40 mg, Japanese participants) was 17.6%, the “AUClast GMR (fed/fasted), % (90% CI)” value ([1]; 40 mg, White n=10) was 101.3 (96.8‐106.0) % and the “AUC∞ GMR (fed/fasted), % (90% CI)” value ([1]; 40 mg, White n=10) was 99.6 (94.6‐104.9) %. The “Cmax GMR (fed/fasted), % (90% CI)” value ([1]; 40 mg, White n=10) was 101.2 (81.4‐125.9) %, the AUC(0-inf) [1, 4] was 5270 ng·h/mL and the AUC(0-t) [1, 4] was 4920 ng·h/mL. For the same compound, the Cmax [1, 4] was 356 ng/mL, the AUC(0-inf) [1, 5] was 5230 ng·h/mL and the AUC(0-t) [1, 5] was 4840 ng·h/mL. The Cmax [1, 5] was 293 ng/mL, the AUC(0-inf) [1, 6] was 6200 ng·h/mL and the AUC(0-t) [1, 6] was 5150 ng·h/mL. It also gave a Cmax [1, 6] of 269 ng/mL, an AUC(0-inf) [1, 7] of 6180 ng·h/mL and an AUC(0-t) [1, 7] of 5210 ng·h/mL. For the same compound, the Cmax [1, 7] was 272 ng/mL, the half-life ([1]; oral, 40 mg, fasted and fed, White, read-out: Mean t1/2 (converted)) was 1620 to 1680 min and the Tmax ([1]; oral, 40 mg, fasted, Japanese, read-out: median Tmax) was 1.3 h. The Tmax ([1]; oral, 40 mg, fasted, White, read-out: median Tmax) was 1.3 h, the half-life ([1]; oral, 40 mg, fed, Japanese, read-out: Mean t1/2 (converted)) was 1100 min and the Tmax ([1]; oral, 40 mg, fed, Japanese, read-out: median Tmax) was 3 h. The Tmax ([1]; oral, 40 mg, fed, White, read-out: median Tmax) was 2 h, the AUC(0-inf) [1, 8] was 5470 ng·h/mL and the AUC(0-t) [1, 8] was 5010 ng·h/mL. The Cmax [1, 8] was 352 ng/mL, the half-life ([1]; po, 40 mg, 40 mg single oral dose, Japanese, fasted, mean (CV%), read-out: t1/2 (converted)) was 1160 min and the Tmax ([1]; po, 40 mg, 40 mg single oral dose, Japanese, fasted, median (range), read-out: Tmax) was 1.27 h. It also gave an AUC(0-inf) [1, 9] of 5490 ng·h/mL, an AUC(0-t) [1, 9] of 4980 ng·h/mL and a Cmax [1, 9] of 297 ng/mL. For the same compound, the half-life ([1]; po, 40 mg, 40 mg single oral dose, Japanese, fed, mean (CV%), read-out: t1/2 (converted)) was 1160 min, the Tmax ([1]; po, 40 mg, 40 mg single oral dose, Japanese, fed, median (range), read-out: Tmax) was 3 h and the AUC(0-inf) [1, 10] was 6680 ng·h/mL. It also gave an AUC(0-t) [1, 10] of 5480 ng·h/mL, a Cmax [1, 10] of 301 ng/mL and a half-life ([1]; po, 40 mg, 40 mg single oral dose, White, fasted, mean (CV%), read-out: t1/2 (converted)) of 1730 min. The Tmax ([1]; po, 40 mg, 40 mg single oral dose, White, fasted, median (range), read-out: Tmax) was 1.25 h, the AUC(0-inf) [1, 11] was 6500 ng·h/mL and the AUC(0-t) [1, 11] was 5470 ng·h/mL. It also gave a Cmax [1, 11] of 302 ng/mL, a half-life ([1]; po, 40 mg, 40 mg single oral dose, White, fed, mean (CV%), read-out: t1/2 (converted)) of 1650 min and a Tmax ([1]; po, 40 mg, 40 mg single oral dose, White, fed, median (range), read-out: Tmax) of 2 h. It also gave an AUC(0-inf) [1, 12] of 5180 ng·h/mL, an AUC(0-t) [1, 12] of 4820 ng·h/mL and a Cmax [1, 12] of 338 ng/mL. The half-life ([1]; po, 40 mg, 40 mg single oral, fasted, Japanese, read-out: Elimination t1/2 (converted)) was 1120 min, the AUC(0-inf) [1, 13] was 6200 ng·h/mL and the AUC(0-t) [1, 13] was 5150 ng·h/mL. For the same compound, the Cmax [1, 13] was 269 ng/mL, the half-life ([1]; po, 40 mg, 40 mg single oral, fasted, White, read-out: Elimination t1/2 (converted)) was 1680 min and the Tmax ([1]; po, 40 mg, 40 mg single oral, fasted, both Japanese and White participants, read-out: Tmax) was 1.3 h. The IC50 (CYP2D6) was greater than 30 µM, the IC50 [2] was greater than 11 µM and the CYP inhibition (CYP2C8) was “no effect”. The substrate status [3] was “substrate”, the “CYP induction (significant inducer or not)” value (CYP2B6) was “not a significant” and the substrate status (P‐glycoprotein (P‐gp)) was “substrate”.
